The term EC50 denotes the concentration giving half of the maximal effect. By IC50 is commonly meant the midpoint of a concentration-inhibition curve.

Data on two compounds can be found in US12441704B2, “Compounds active towards nuclear receptors” (NUEVOLUTION A/S, priority 2019, dated 2025).

Assay [1] has as its target T1, RORγ ligand-binding domain fused to Gal4 (Homo sapiens, UniProt P51449).
T1 construct: Gal4 (galactose-responsive transcription factor); expressed in transfected cells; host or cells: HEK293
T1 sequence (P51449 269-508 limits assumed): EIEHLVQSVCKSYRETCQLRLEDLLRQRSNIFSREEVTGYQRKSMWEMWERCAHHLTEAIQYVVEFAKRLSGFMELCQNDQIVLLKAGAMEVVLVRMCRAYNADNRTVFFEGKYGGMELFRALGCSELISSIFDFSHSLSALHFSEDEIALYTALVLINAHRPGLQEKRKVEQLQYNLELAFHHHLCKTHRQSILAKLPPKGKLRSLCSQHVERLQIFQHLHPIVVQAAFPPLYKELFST
Put plainly: RORγ Reporter Assay (Gal4). The assay is classed as cell-based. The note with it: compounds of the present disclosure, read-out: Gal4 assay EC50. In a few lines:
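HEK293 cells transiently co-transfected with the Gal4-fused RORγ LBD and a UAS-luciferase reporter were exposed to compounds for 24 h at 37 °C (0.1% DMSO final). Luminescence was read, and percent reduction of RORγ activity was calculated relative to vehicle-average RLU.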
Background: A reporter such as luciferase makes a cellular process visible.

Assay [2] relates to IL-17A secretion in activated PBMCs. Put plainly: IL-17A secretion in activated PBMCs. The note with it: Homo sapiens, PBMC, 48 h, human PBMCs stimulated with CD3/CD28 Dynabeads for 48 h; absolute IC50. The format is cell-based, human. In a few lines:
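Human PBMCs from healthy donors, 40,000 cells/well, were preincubated 30 min with compound in 10-point 5-fold dilutions (0.1% DMSO), then stimulated 48 h at 37° C with CD3/CD28 beads (1:1). Supernatant IL-17A was read by bead immunoassay on a flow cytometer. Inhibition was normalized to activated DMSO (top) and GNE09461 10 μM (basal).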

In assay [3] the test system is plasma IL-17A. Put plainly: In vivo IL-17A induction in anti-CD3 model in mice. The note with it: oral gavage twice daily day 0 to day 3, C57BL/6JRj mice. On the procedure: Male C57BL/6JRj mice (7 week old) were purchased from Janvier Labs and housed at the animal facilities of Almirall throughout the study. Animals were allowed to condition for 5 days in their new environment at 22° C.±2° C., 55%±10% relative humidity and 12 h: 12 h light:dark cycles. Animals were housed in polycarbonate cages, with free access to water and non-purified stock diet (2014 Teklad Global 14% Protein Rodent Maintenance Diet, Envigo) during the full course of the studies. Care of animals was undertaken in compliance with the European Committee Directive 2010/63/EU, and the Catalan and Spanish law. All procedures were performed according to the ARRIVE guidelines (Animal Research: Reporting of In Vivo Experiments) and with approval from the Animal Experimentation Ethical Committee of Almirall (Barcelona, Spain).
Mice were injected intraperitoneally with 7.5 μg of anti-CD3e (Clone 145-2C11 from Pharmingen BD) at 0 h (day 0) and […] (day 3) time-points. The non-induced-group were injected with PBS instead of anti-CD3e. At study completion (4 h after anti-CD3e injection), animals were anaesthetized with isofluorane (Baxter) and 0.5-1 mL blood samples were drawn by intracardiac puncture in heparinized tubes. Plasma samples were stored at −80° C. for subsequent analysis.
Test compounds were freshly suspended in sterile 0.5% methylcellulose 0.1% tween-80 solution (10 mL/kg body weight). […]
Plasma levels of IL-17A were measured by ELISA (R&D Systems) according to the manufacturer's instruction. Results were calculated as the percentage of reduction of plasma IL-17A versus the difference between non-induced and anti-CD3e induced groups through the formula: inhibition=100*[1−[(x−mean non-induced)/(mean control vehicle−mean non-induced)]]. The IL-17A inhibition for each treatment can be expressed as the mean for each treatment group±S.E.M. Statistical analysis of data were conducted with one-way ANOVA followed by Dunnett's multiple comparisons test when appropriate. […]

Assay [4] concerns Collagen-induced arthritis. Put plainly: Collagen-induced arthritis (CIA) study. The format is in vivo. The note with it: 3 mpk p.o. b.i.d.; DBA/1J mice. On the procedure:
Collagen-induced arthritis is an animal model of rheumatoid arthritis used to evaluate the efficacy of test compounds. CIA was induced at Washington Biotechnology Inc. (Baltimore) in male DBA/1J mice (Jackson Laboratories) by subcutaneous injection at the base of the tail with 50 μl of a bovine collagen/complete Freund's adjuvant emulsion. After 21 days, the mice were further boosted by a further subcutaneous injection of 50 μl of a collagen/incomplete Freund's adjuvant emulsion. For treatment, compound or vehicle (2% DMSO, 10% HP-β-CD in MilliQ water) was given orally twice daily at various doses selected from 3, 10, 30 mg/kg, beginning at the day of CIA induction (Prophylactic setting), or after disease initiation (at day 27, therapeutic setting). Treatment lasted until day 41, and the animals were scored three times weekly. Each paw was scored and the sum of all four scores was recorded as the Arthritic Index (AI). The maximum possible AI was 16. 0=no visible effects of arthritis; 1=edema and/or erythema of one digit; 2=edema and/or erythema of 2 joints; 3=edema and/or erythema of more than 2 joints; 4=severe arthritis of the entire paw and digits including limb deformation and ankylosis of the joint. The Arthritis Index for each treatment can be expressed as the mean score for each treatment group+/−S.E.M.

In assay [5] the test system is Th17 cells. Put plainly: Th17 Assay (IL-17 levels in supernatants of differentiating Th17 cells). The assay is classed as cell-based. The note with it: 168 h; human naive CD4+ T cells differentiated to Th17 for seven days; IL-17 in supernatants by ELISA. As to the method:
The following modifications were made to the manufacturer's protocol: 1) Incubation with Biotin-Antibody Cocktail and Anti-Biotin MicroBeads was prolonged to 30 minutes, and 2) Cells were washed with 40 mL of Miltenyi buffer. […] Test compounds were tested in triplicates, diluted 1000-fold in medium (final DMSO concentration is 0.1%). Incubated for seven days at 37° C., 5% CO2, 95% humidity, and 2-fluoro-4′-[[4-(4-pyridinylmethyl)-1-piperazinyl]methyl]-α,α-bis(trifluoromethyl)-[1,1′-biphenyl]-4-methanol (SR2211 Calbiochem, Cat. No. 557353) was used as positive control. As negative control, cells were differentiated into Th0 using 5 μg/ml anti-CD28 (BD Pharmingen), 10 ng/ml IL-2 (R&D Systems), 2 μg/ml anti-ILA (R&D Systems) and 2 μg/ml anti-IFNγ (R&D Systems) are negative control. IL-17 levels in supernatants were measured with ELISA (R&D Systems).
For orientation: In an ELISA, binding on a coated surface is turned into a signal by an enzyme label.

Molecules are shown by their SMILES. Like-named read-outs stand apart in the source and are kept apart here.

Take `NC(=O)CN1CC[C@@H](CNc2ncnc(N(Cc3ccc(C(F)(F)F)cc3)C3CC3)c2F)[C@H](O)C1` (single isomer, unassigned) [Example A7-01-1]: in assay [1] (source: Table 2 herein), the half-maximal effective concentration (EC50) was less than 100 nM. Besides, the IC50 in assay [2] turned out to be 6.3 nM. In assay [3], the “Inhibition of IL-17A (%) at 3 mg/kg” value was determined as 80%. The “reduction in AI (Arthritic Index) as compared to the anti-IL-17A antibody” value in assay [4] turned out to be 74%.
For `NC(=O)CN1CCC(CNc2ncnc(N(Cc3ccc(C(F)(F)F)cn3)C3CC3)c2F)C(F)(F)C1` (single isomer, unassigned) [Example A7-03-1], the EC50 is less than 100 nM in assay [1] (value from Table 2 herein) and 83 nM in assay [5].
